Laboratory results published in PubChem BioAssay AID1963827 (Molecular Pharmacology Branch, DTP, NCI, 2024).
pIC50: −log10 of the molar value.

System: 994946-033-R-J1-PDC complex spheroid viability
Test: Anticancer human tumor 994946-033-R-J1-PDC patient-derived melanoma cell line growth inhibition [POLQ]
Settings: for pIC50: curve of first compound; for viability, T/C: stronger effect = lower value
How it was run: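 Patient-derived tumour cells were co-cultured with HUVEC and mesenchymal stem cells as multicellular spheroids at 37 °C. They were treated with POLQ inhibitors (novobiocin, ART-558, RP6685) alone or combined with other agents. Top concentrations were at or near clinical Cmax (otherwise 10 microM; SN-38 at 1 microM), decreasing in half-log steps.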

[1] = second compound 0.0316 µM, first compound 0.0316 µM
[2] = second compound 0.0316 µM, first compound 0.1 µM
[3] = second compound 0.0316 µM, first compound 0.316 µM
[4] = second compound 0.0316 µM, first compound 1 µM
[5] = second compound 0.0316 µM, first compound 3.16 µM
[6] = second compound 0.0316 µM, first compound 10 µM
[7] = second compound 0.1 µM, first compound 0.0316 µM
[8] = second compound 0.1 µM, first compound 0.1 µM
[9] = second compound 0.1 µM, first compound 0.316 µM
[10] = second compound 0.1 µM, first compound 1 µM
[11] = second compound 0.1 µM, first compound 3.16 µM
[12] = second compound 0.1 µM, first compound 10 µM
[13] = second compound 0.316 µM, first compound 0.0316 µM
[14] = second compound 0.316 µM, first compound 0.1 µM
[15] = second compound 0.316 µM, first compound 0.316 µM
[16] = second compound 0.316 µM, first compound 1 µM
[17] = second compound 0.316 µM, first compound 3.16 µM
[18] = second compound 0.316 µM, first compound 10 µM
[19] = second compound 1 µM, first compound 0.0316 µM
[20] = second compound 1 µM, first compound 0.1 µM
[21] = second compound 1 µM, first compound 0.316 µM
[22] = second compound 1 µM, first compound 1 µM
[23] = second compound 1 µM, first compound 3.16 µM
[24] = second compound 1 µM, first compound 10 µM
[25] = second compound 3.16 µM, first compound 0.0316 µM
[26] = second compound 3.16 µM, first compound 0.1 µM
[27] = second compound 3.16 µM, first compound 0.316 µM
[28] = second compound 3.16 µM, first compound 1 µM
[29] = second compound 3.16 µM, first compound 3.16 µM
[30] = second compound 3.16 µM, first compound 10 µM
[31] = second compound 10 µM, first compound 0.0316 µM
[32] = second compound 10 µM, first compound 0.1 µM
[33] = second compound 10 µM, first compound 0.316 µM
[34] = second compound 10 µM, first compound 1 µM
[35] = second compound 10 µM, first compound 3.16 µM
[36] = second compound 10 µM, first compound 10 µM
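Note: spheroids exposed to drugs for 7 days.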
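Throughout, for viability, T/C: 100% = DMSO vehicle treated spheroids.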

`CC1COCCN1c1cc(C2(O)CC3CCC(C2)O3)c2cnn(-c3ccn[nH]3)c2n1` (stereo unspecified) + Cc1cccc(N(C)C(=O)C2C(O)CCN2c2nc(C)cc(C(F)(F)F)c2C#N)c1 showed a pIC50 (second compound 0.0316 µM) of over 7.50, a pIC50 (second compound 0.1 µM) of 7.42 and a pIC50 (second compound 0.316 µM) of over 7.50. It also gave a pIC50 (second compound 1 µM) of over 7.50, a pIC50 (second compound 3.16 µM) of 7.48 and a pIC50 (second compound 10 µM) of over 7.50. For the same molecule, the viability, T/C [1] was 49.5%, the viability, T/C [2] was 34.5% and the viability, T/C [3] was 14.3%. The viability, T/C [4] was 15.3%, the viability, T/C [5] was 14.6% and the viability, T/C [6] was 5.33%. For the same molecule, the viability, T/C [7] was 52.7%, the viability, T/C [8] was 37% and the viability, T/C [9] was 18.8%. It also gave a viability, T/C [10] of 12.3%, a viability, T/C [11] of 12% and a viability, T/C [12] of 4%. For the same molecule, the viability, T/C [13] was 46.8%, the viability, T/C [14] was 26.4% and the viability, T/C [15] was 14.6%. It also gave a viability, T/C [16] of 18.4%, a viability, T/C [17] of 12.7% and a viability, T/C [18] of 2.62%. The viability, T/C [19] was 42%, the viability, T/C [20] was 23.1% and the viability, T/C [21] was 20.9%. The viability, T/C [22] was 17%, the viability, T/C [23] was 12.5% and the viability, T/C [24] was 3.16%. The viability, T/C [25] was 51.6%, the viability, T/C [26] was 27.2% and the viability, T/C [27] was 23.2%. The viability, T/C [28] was 13.5%, the viability, T/C [29] was 12.7% and the viability, T/C [30] was 10.9%. For the same molecule, the viability, T/C [31] was 47.1%, the viability, T/C [32] was 38.4% and the viability, T/C [33] was 18.7%. It also gave a viability, T/C [34] of 23%, a viability, T/C [35] of 9.14% and a viability, T/C [36] of 5.05%.

`O=C(c1cc(Cc2n[nH]c(=O)c3ccccc23)ccc1F)N1CCN(C(=O)C2CC2)CC1` + COC1C(OC(N)=O)C(O)C(Oc2ccc3c(O)c(NC(=O)c4ccc(O)c(CC=C(C)C)c4)c(=O)oc3c2C)OC1(C)C gave a pIC50 (second compound 0.0316 µM) of 5.32, a pIC50 (second compound 0.1 µM) of 5.34 and a pIC50 (second compound 0.316 µM) of 5.30. The pIC50 (second compound 1 µM) was 5.39, the pIC50 (second compound 3.16 µM) was 5.32 and the pIC50 (second compound 10 µM) was 5.38. It also gave a viability, T/C [1] of 56.5%, a viability, T/C [2] of 91.1% and a viability, T/C [3] of 100%. It also gave a viability, T/C [4] of 87.1%, a viability, T/C [5] of 57.7% and a viability, T/C [6] of 35.9%. The viability, T/C [7] was 110%, the viability, T/C [8] was 81.5% and the viability, T/C [9] was 87.1%. The viability, T/C [10] was 73.5%, the viability, T/C [11] was 72.4% and the viability, T/C [12] was 22.2%. It also gave a viability, T/C [13] of 93.2%, a viability, T/C [14] of 82.2% and a viability, T/C [15] of 86.4%. For the same molecule, the viability, T/C [16] was 67.7%, the viability, T/C [17] was 69.8% and the viability, T/C [18] was 28.9%. It also gave a viability, T/C [19] of 99.1%, a viability, T/C [20] of 84.5% and a viability, T/C [21] of 90.2%. For the same molecule, the viability, T/C [22] was 69.1%, the viability, T/C [23] was 58.1% and the viability, T/C [24] was 28.1%. It also gave a viability, T/C [25] of 84.7%, a viability, T/C [26] of 83.2% and a viability, T/C [27] of 88.4%. It also gave a viability, T/C [28] of 76.6%, a viability, T/C [29] of 60.4% and a viability, T/C [30] of 32.2%. For the same molecule, the viability, T/C [31] was 95.5%, the viability, T/C [32] was 79.2% and the viability, T/C [33] was 86%. The viability, T/C [34] was 69.9%, the viability, T/C [35] was 60.8% and the viability, T/C [36] was 27.1%.

With `CC1COCCN1c1cc(C2(O)CC3CCC(C2)O3)c2cnn(-c3ccn[nH]3)c2n1` (stereo unspecified) + COC1C(OC(N)=O)C(O)C(Oc2ccc3c(O)c(NC(=O)c4ccc(O)c(CC=C(C)C)c4)c(=O)oc3c2C)OC1(C)C the pIC50 (second compound 0.0316 µM) was 7.44, the pIC50 (second compound 0.1 µM) was 7.30 and the pIC50 (second compound 0.316 µM) was 7.47. The pIC50 (second compound 1 µM) was 7.17, the pIC50 (second compound 3.16 µM) was over 7.50 and the pIC50 (second compound 10 µM) was 7.35. It also gave a viability, T/C [1] of 52.4%, a viability, T/C [2] of 39.7% and a viability, T/C [3] of 17.2%. It also gave a viability, T/C [4] of 25.7%, a viability, T/C [5] of 12.7% and a viability, T/C [6] of 6.6%. It also gave a viability, T/C [7] of 61.9%, a viability, T/C [8] of 32.1% and a viability, T/C [9] of 19.1%. For the same molecule, the viability, T/C [10] was 17.5%, the viability, T/C [11] was 11.9% and the viability, T/C [12] was 6.15%. It also gave a viability, T/C [13] of 52.1%, a viability, T/C [14] of 29.5% and a viability, T/C [15] of 19.2%. For the same molecule, the viability, T/C [16] was 16.5%, the viability, T/C [17] was 14.3% and the viability, T/C [18] was 6.89%. For the same molecule, the viability, T/C [19] was 79.2%, the viability, T/C [20] was 30.6% and the viability, T/C [21] was 25.5%. The viability, T/C [22] was 20.1%, the viability, T/C [23] was 14.2% and the viability, T/C [24] was 5.41%. The viability, T/C [25] was 46.6%, the viability, T/C [26] was 25.5% and the viability, T/C [27] was 23.7%. For the same molecule, the viability, T/C [28] was 18.9%, the viability, T/C [29] was 8.1% and the viability, T/C [30] was 4.51%. The viability, T/C [31] was 56.8%, the viability, T/C [32] was 35.9% and the viability, T/C [33] was 27.6%. The viability, T/C [34] was 22.5%, the viability, T/C [35] was 15.3% and the viability, T/C [36] was 5.9%.
